Data as given in US12685735B2 (Foghorn Therapeutics Inc., priority 2020, dated 2026).

Experiments:
BRG-1 = BRG-1 (Homo sapiens, UniProt P51532); assay: ATPase catalytic activity assay of BRG-1 (ADP-Glo); type: biochemical; settings: ATPase catalytic activity, ADP-Glo; for IC50: read-out: BRG1 IC50 (μM)*; for Emax: read-out: BRG1 Max % Inhibition
Outline: (§1)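 Luminescence from ADP formed by BRM or BRG-1 ATPase was detected after a two-step ADP-Glo workup at room temperature. The first step, removing unconsumed ATP, took 40 min; the second, converting ADP to ATP for luciferase, took 60 min.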

BRM = BRM (Homo sapiens, UniProt P51531); assay: ATPase catalytic activity assay of BRM (ADP-Glo); type: biochemical; settings: for IC50: read-out: BRM IC50 (μM)*
Outline: as §1

Chain of BRM (P51531 whole entry): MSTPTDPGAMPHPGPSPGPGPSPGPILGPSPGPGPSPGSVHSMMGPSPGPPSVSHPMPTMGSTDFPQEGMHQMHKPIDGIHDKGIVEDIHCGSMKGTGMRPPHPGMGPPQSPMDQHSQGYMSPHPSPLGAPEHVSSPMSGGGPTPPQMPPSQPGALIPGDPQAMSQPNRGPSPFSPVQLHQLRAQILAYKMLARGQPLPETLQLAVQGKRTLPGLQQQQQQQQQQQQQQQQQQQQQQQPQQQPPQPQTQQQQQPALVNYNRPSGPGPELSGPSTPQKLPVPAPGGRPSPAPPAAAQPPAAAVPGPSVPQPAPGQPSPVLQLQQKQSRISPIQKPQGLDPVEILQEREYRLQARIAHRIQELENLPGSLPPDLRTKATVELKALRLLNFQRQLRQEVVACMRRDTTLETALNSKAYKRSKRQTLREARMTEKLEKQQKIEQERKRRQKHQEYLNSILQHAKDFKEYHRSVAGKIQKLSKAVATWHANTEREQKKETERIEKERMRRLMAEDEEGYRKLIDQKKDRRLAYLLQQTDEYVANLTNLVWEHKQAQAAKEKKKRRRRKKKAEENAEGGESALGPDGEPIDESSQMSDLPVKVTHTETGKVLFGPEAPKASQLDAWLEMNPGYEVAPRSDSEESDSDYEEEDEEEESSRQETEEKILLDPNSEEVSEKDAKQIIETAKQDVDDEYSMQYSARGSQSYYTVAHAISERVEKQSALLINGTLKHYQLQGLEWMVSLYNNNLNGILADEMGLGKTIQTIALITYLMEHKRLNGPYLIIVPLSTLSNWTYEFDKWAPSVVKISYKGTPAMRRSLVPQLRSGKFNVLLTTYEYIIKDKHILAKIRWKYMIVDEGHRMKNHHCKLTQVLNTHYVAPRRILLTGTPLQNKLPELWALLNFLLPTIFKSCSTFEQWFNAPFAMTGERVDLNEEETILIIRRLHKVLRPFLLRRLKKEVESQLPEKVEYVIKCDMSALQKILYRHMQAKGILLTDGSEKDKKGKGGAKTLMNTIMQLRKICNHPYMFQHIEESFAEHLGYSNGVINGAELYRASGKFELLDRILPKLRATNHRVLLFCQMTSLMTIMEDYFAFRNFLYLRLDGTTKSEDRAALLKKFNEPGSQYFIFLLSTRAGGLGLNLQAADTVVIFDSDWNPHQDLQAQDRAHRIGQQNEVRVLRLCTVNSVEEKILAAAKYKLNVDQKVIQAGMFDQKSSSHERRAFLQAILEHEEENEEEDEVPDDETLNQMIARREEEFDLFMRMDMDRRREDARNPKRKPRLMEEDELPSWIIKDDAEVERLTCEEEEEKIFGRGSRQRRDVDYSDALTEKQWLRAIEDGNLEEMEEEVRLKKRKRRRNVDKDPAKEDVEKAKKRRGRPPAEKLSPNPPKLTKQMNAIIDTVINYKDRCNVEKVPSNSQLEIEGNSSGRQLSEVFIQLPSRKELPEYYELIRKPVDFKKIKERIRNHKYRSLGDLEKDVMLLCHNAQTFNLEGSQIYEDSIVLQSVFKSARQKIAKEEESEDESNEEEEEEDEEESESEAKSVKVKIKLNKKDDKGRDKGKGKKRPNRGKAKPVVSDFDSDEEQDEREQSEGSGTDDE
Chain of BRG-1 (P51532 whole entry): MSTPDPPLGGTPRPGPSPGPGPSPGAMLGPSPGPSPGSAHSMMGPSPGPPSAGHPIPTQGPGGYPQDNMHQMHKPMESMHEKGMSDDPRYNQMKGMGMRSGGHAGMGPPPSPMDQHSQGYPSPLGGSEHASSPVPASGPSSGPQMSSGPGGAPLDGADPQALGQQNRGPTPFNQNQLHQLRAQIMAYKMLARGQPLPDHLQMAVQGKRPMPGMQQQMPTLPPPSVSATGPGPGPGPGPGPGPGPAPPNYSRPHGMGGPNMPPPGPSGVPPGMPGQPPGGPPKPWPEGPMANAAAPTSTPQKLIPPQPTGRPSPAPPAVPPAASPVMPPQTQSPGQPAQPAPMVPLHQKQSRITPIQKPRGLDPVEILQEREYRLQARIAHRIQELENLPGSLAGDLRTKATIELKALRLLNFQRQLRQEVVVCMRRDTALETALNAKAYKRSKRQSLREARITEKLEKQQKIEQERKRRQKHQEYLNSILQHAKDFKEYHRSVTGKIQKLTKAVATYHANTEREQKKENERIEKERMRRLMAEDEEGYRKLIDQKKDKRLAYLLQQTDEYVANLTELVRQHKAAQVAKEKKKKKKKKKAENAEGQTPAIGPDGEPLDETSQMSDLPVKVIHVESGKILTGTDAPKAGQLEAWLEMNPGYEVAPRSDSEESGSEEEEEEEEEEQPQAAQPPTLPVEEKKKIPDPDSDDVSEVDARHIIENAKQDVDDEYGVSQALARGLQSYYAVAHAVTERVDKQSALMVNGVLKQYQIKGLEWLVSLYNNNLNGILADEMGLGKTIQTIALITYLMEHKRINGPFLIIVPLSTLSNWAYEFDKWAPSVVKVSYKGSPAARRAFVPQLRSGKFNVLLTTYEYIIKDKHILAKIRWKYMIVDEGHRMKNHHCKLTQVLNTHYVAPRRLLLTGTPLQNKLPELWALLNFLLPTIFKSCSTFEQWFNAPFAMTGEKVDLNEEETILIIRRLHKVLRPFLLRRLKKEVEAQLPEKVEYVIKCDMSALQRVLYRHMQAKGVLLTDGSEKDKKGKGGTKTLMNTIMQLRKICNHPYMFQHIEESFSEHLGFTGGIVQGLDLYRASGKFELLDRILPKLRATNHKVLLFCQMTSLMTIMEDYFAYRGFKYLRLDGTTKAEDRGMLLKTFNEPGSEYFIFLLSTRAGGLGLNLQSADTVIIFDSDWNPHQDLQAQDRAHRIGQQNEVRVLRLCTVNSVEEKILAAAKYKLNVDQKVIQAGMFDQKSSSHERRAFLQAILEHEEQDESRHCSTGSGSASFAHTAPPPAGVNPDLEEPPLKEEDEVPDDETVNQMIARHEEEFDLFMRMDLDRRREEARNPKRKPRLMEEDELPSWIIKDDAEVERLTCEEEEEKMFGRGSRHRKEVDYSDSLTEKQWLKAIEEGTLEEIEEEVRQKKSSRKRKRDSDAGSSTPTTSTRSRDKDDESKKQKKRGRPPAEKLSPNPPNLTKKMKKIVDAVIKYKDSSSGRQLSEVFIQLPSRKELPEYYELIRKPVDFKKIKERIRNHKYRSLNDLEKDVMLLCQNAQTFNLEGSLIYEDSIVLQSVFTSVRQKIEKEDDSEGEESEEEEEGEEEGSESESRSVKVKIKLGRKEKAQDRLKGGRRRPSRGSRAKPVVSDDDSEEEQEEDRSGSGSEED

IC50 (BRG-1) [µM]	Emax (BRG-1) [%]	BRM Max % Inhibition (BRM) [%]	IC50 (BRM) [µM]	SMILES
0.1 to 1	> 80	>95	0.1 to 1	CC(C)(CO)c1cccc(C(=O)NCC(=O)Nc2nc(-c3cccc(N4CCC(O)CC4)c3)cs2)c1 [Compound 247, 3-(2-hydroxy-1,1-dimethyl-ethyl)-N-[2-[[4-[3-(4-hydroxy-1-piperidyl)phenyl]thiazol-2-yl]amino]-2-oxo-ethyl]benzamide]
< 0.1	> 95	>95	< 0.1	Cc1nccc(-c2cccc(-c3csc(NC(=O)CNC(=O)c4ccc5c(c4)[C@](C)(C#N)CC5)n3)n2)n1 [Compound 249, (3R)-3-cyano-3-methyl-N-[2-[[4-[6-(2-methylpyrimidin-4-yl)-2-pyridyl]thiazol-2-yl]amino]-2-oxo-ethyl]indane-5-carboxamide]
> 5	> 50	>70	1 to 5	CC1(C)c2cc(C(=O)NCC(=O)Nc3nc(-c4cccc(-c5ccncc5)c4)cs3)ccc2C[C@@H]1N [Compound 250, (S)-2-amino-3,3-dimethyl-N-(2-oxo-2-((4-(3-(pyridin-4-yl)phenyl)thiazol-2-yl)amino)ethyl)-2,3-dihydro-1H-indene-5-carboxamide]
> 5	< 30	>50	1 to 5	Cc1cc(-c2cccc(-c3csc(NC(=O)CNC(=O)c4ccc5c(c4)[C@@](C)(CN)CCC5)n3)c2)cc(C)n1 [Compound 251, (4S)-4-(aminomethyl)-N-[2-[[4-[3-(2,6-dimethyl-4-pyridyl)phenyl]thiazol-2-yl]amino]-2-oxo-ethyl]-4-methyl-tetralin-6-carboxamide]
> 5	> 30	>60	1 to 5	C[C@@H]1CN(c2cccc(-c3csc(NC(=O)CNC(=O)c4cccc5c4OCC[C@]5(C)CO)n3)c2)C[C@H](C)O1 [Compound 252, (S)-N-(2-((4-(3-((cis)-2,6-dimethylmorpholino)phenyl)thiazol-2-yl)amino)-2-oxoethyl)-4-(hydroxymethyl)-4-methylchroman-8-carboxamide]
1 to 5	> 50	>90	1 to 5	C[C@@H]1CN(c2cccc(-c3csc(NC(=O)CNC(=O)c4cnc5c(c4)[C@@](C)(C#N)CC5)n3)c2)C[C@H](C)O1 [Compound 253, (S)-5-cyano-N-(2-((4-(3-((cis)-2,6-dimethylmorpholino)phenyl)thiazol-2-yl)amino)-2-oxoethyl)-5-methyl-6,7-dihydro-5H-cyclopenta[b]pyridine-3-carboxamide]
< 0.1	> 95	>95	< 0.1	C[C@@H]1CN(c2cccc(-c3csc(NC(=O)CNC(=O)c4ccc5c(c4)[C@](C)(C#N)COC5)n3)c2)C[C@H](C)O1 [Compound 254, (R)-4-cyano-N-(2-((4-(3-((cis)-2,6-dimethylmorpholino)phenyl)thiazol-2-yl)amino)-2-oxoethyl)-4-methylisochroman-6-carboxamide]
> 5	> 40	>70	1 to 5	C[C@@H]1CN(c2cccc(-c3csc(NC(=O)CNC(=O)c4ccc5c(c4)[C@@](C)(C#N)CCO5)n3)c2)C[C@H](C)O1 [Compound 255, (4S)-4-cyano-N-[2-[[4-[3-[(cis)-2,6-dimethylmorpholin-4-yl]phenyl]thiazol-2-yl]amino]-2-oxo-ethyl]-4-methyl-chromane-6-carboxamide]

The next lines start with the compound.

SMILES	IC50 (BRG-1) [µM]	Emax (BRG-1) [%]	BRM Max % Inhibition (BRM) [%]	IC50 (BRM) [µM]
Cc1cc(-c2cccc(-c3csc(NC(=O)CNC(=O)c4ccc5c(c4)[C@@](C)(CO)CC5)n3)c2)nc(C)n1 [Compound 227, (3S)-N-[2-[[4-[3-(2,6-dimethylpyrimidin-4-yl)phenyl]thiazol-2-yl]amino]-2-oxo-ethyl]-3-(hydroxymethyl)-3-methylindane-5-carboxamide]	< 0.1	> 95	>95	< 0.1
Cc1cc(-c2cccc(-c3csc(NC(=O)CNC(=O)c4ccc5c(c4)[C@](C)(CO)CC5)n3)c2)nc(C)n1 [Compound 228, (3R)-N-[2-[[4-[3-(2,6-dimethylpyrimidin-4-yl)phenyl]thiazol-2-yl]amino]-2-oxo-ethyl]-3-(hydroxymethyl)-3-methyl-indane-5-carboxamide]	< 0.1	> 95	>95	< 0.1
Cc1cc(-c2cccc(-c3csc(NC(=O)CNC(=O)c4cccc(C(C)(C)CO)c4)n3)n2)ncn1 [Compound 230, 3-(2-hydroxy-1,1-dimethyl-ethyl)-N-[2-[[4-[6-(6-methylpyrimidin-4-yl)-2-pyridyl]thiazol-2-yl]amino]-2-oxo-ethyl]benzamide]	0.1 to 1	> 80	>95	< 0.1
Cc1cc(-c2cccc(-c3csc(NC(=O)CNC(=O)c4ccc5c(c4)[C@@](C)(CO)CCC5)n3)c2)cc(C)n1 [Compound 231, (S)-N-(2-((4-(3-(2,6-dimethylpyridin-4-yl)phenyl)thiazol-2-yl)amino)-2-oxoethyl)-8-(hydroxymethyl)-8-methyl-5,6,7,8-tetrahydronaphthalene-2-carboxamide]	0.1 to 1	> 80	>95	< 0.1
Cc1cc(-c2cccc(-c3csc(NC(=O)CNC(=O)c4ccc5c(c4)[C@](C)(CO)CCC5)n3)c2)cc(C)n1 [Compound 232, (R)-N-(2-((4-(3-(2,6-dimethylpyridin-4-yl)phenyl)thiazol-2-yl)amino)-2-oxoethyl)-8-(hydroxymethyl)-8-methyl-5,6,7,8-tetrahydronaphthalene-2-carboxamide]	0.1 to 1	> 80	>95	< 0.1
CC1(CO)CCc2ccc(C(=O)NCC(=O)Nc3nc(-c4cccc(-c5cccc(C#N)c5)c4)cs3)cc21 (stereo not shown) [Compound 233, N-[2-[[4-[3-(3-cyanophenyl)phenyl]thiazol-2-yl]amino]-2-oxo-ethyl]-3-(hydroxymethyl)-3-methyl-indane-5-carboxamide]	0.1 to 1	> 80	>95	< 0.1
Cc1ccc(C(=O)NCC(=O)Nc2nc(-c3cccc(N4C[C@@H](C)O[C@@H](C)C4)n3)cs2)cc1C(C)(C)CO [Compound 237, N-(2-((4-(6-((cis)-2,6-dimethylmorpholino)pyridin-2-yl)thiazol-2-yl)amino)-2-oxoethyl)-3-(1-hydroxy-2-methylpropan-2-yl)-4-methylbenzamide]	0.1 to 1	> 90	>95	< 0.1
Cc1ccc(C(=O)NCC(=O)Nc2nc(-c3cccc(N4C[C@@H](C)O[C@@H](C)C4)c3)cs2)cc1C(C)(C)CO [Compound 238, N-(2-((4-(3-((cis)-2,6-dimethylmorpholino)phenyl)thiazol-2-yl)amino)-2-oxoethyl)-3-(1-hydroxy-2-methylpropan-2-yl)-4-methylbenzamide]	0.1 to 1	> 90	>95	< 0.1
C[C@@H]1CN(c2cccc(-c3csc(NC(=O)CNC(=O)c4ccc(Cl)c(C(C)(C)CO)c4)n3)n2)C[C@H](C)O1 [Compound 241, 4-chloro-N-[2-[[4-[6-[(cis)-2,6-dimethylmorpholin-4-yl]-2-pyridyl]thiazol-2-yl]amino]-2-oxo-ethyl]-3-(2-hydroxy-1,1-dimethyl-ethyl)benzamide]	0.1 to 1	> 90	>95	< 0.1
CCC(C)(CO)c1cccc(C(=O)NCC(=O)Nc2nc(-c3cccc(-c4ccncc4)c3)cs2)c1 (stereo not shown) [Compound 242, 3-[1-(hydroxymethyl)-1-methyl-propyl]-N-[2-oxo-2-[[4-[3-(4-pyridyl)phenyl]thiazol-2-yl]amino]ethyl]benzamide]	1 to 5	> 50	>80	0.1 to 1
C[C@]1(CN)CCc2c(C(=O)NCC(=O)Nc3nc(-c4cccc(-c5ccncc5)c4)cs3)cccc21 [Compound 243, (1S)-1-(aminomethyl)-1-methyl-N-[2-oxo-2-[[4-[3-(4-pyridyl)phenyl]thiazol-2-yl]amino]ethyl]indane-4-carboxamide]	1 to 5	> 50	>80	0.1 to 1
C[C@@H]1CN(c2cccc(-c3csc(NC(=O)CNC(=O)c4ccc(Cl)c(C(C)(C)CO)c4)n3)c2)C[C@H](C)O1 [Compound 244, 4-chloro-N-[2-[[4-[3-[(cis)-2,6-dimethylmorpholin-4-yl]phenyl]thiazol-2-yl]amino]-2-oxo-ethyl]-3-(2-hydroxy-1,1-dimethyl-ethyl)benzamide]	0.1 to 1	> 95	>95	< 0.1
Cc1cc(-c2cccc(-c3csc(NC(=O)CNC(=O)c4cc(C)c(C)c(C(C)(C)CN)c4)n3)c2)cc(C)n1 [Compound 245, 3-(2-amino-1,1-dimethyl-ethyl)-N-[2-[[4-[3-(2,6-dimethyl-4-pyridyl)phenyl]thiazol-2-yl]amino]-2-oxo-ethyl]-4,5-dimethyl-benzamide]	1 to 5	> 70	>95	< 0.1
C[Si](C)(C)c1cccc(C(=O)NCC(=O)Nc2nc(-c3cccc(-c4ccncc4)c3)cs2)c1 [Compound 248, N-[2-oxo-2-[[4-[3-(4-pyridyl)phenyl]thiazol-2-yl]amino]ethyl]-3-trimethylsilyl-benzamide]	1 to 5	> 30	>40	0.1 to 1
